Reference: PMC11678426, “Phytochemical Study and In Vitro Antioxidant Activity of Helianthemum cinereum Along with Antitumor Activity of the Isolated trans-Tiliroside and Luteolin 4′-O-β-Xyloside” (Molecules, 2024)
Several values for one entry are separate records, joined by “and”; a condition that tells them apart may be missing. Equal entries are not always repeated.

Assays:
[1] = DPPH radical scavenging capacity
Description: Different concentrations of H. cinereum extract were prepared in methanol and aliquots of 100 μL were added to 3.5 mL of DPPH (Sigma-Aldrich, Steinheim, Germany) solution (30 μg/g in methanol). A blank consisting of DPPH solution without extract was prepared. All samples were kept in darkness for 15 min. Then, the absorbance was measured against a blank (Methanol) at 515 nm in a UV-Vis spectrophotometer (UV 1700, Shimadzu, Japan). The DPPH solution was daily prepared and the concentration was checked using a calibration curve obtained by preparation of serial concentrations (4, 8, 16, 32 and 64 μg/g). […] The obtained IC50 value is inversely proportional to the antioxidant activity.

[2] = design: method as in doi:10.3390/app7040400; conditions: cited from earlier work
IL-5 = test system: IL-5; design: method as in PMID 10418337; conditions: from Kummerowia striata; cited from earlier work
A375 melanoma cell line = assay: Cell viability by MTT assay, A375; format: cell-based; conditions: for concentrations giving significant decrease in cell viability: 72 h
Description: (§1) The immortalized human keratinocytes HaCaT cells were obtained from Cell Lines Services (Eppelheim, Germany). The A549 cell lines were acquired from the European Collection of Authenticated Cell Cultures (ECACC) and supplied by Sigma-Aldrich (St. Louis, MO, USA), the A375 cell lines were acquired from ATCC and supplied by LGC Standards (Barcelona, Spain), and Mia PaCa-2 and Panc-1 cell lines were kindly provided by Dr. Sónia Melo […], Porto, Portugal). […] Cells were cultured at 5% CO2 and at 37 °C. A stock solution was made by dissolving trans-tiliroside or luteolin 4'-O-β-xyloside in dimethyl sulfoxide (DMSO, Sigma-Aldrich, St. Louis, MO, USA). All cell lines were seeded in 96-well plates at a density of 12,500 cells/mL and incubated for 24 h for adhesion. […] After the exposure, cell viability was assessed by 3-(4,5-dimethyl-2-thiazolyl)-2,5-diphenyl-2H-tetrazolium bromide (MTT, Sigma-Aldrich, St. Louis, MO, USA) assay. Briefly, the exposure medium was replaced by fresh medium and 50 μL of MTT (1.0 mg/mL dissolved in phosphate-buffered saline, PBS, PAN-Biotech, Aidenbach, Germany) and plates were incubated for 3 h. Then, the medium was removed and 150 μL of DMSO was added and plates were shaken in the dark for 1 h. The absorbance was read in a microplate reader BioTek Synergy HT plate reader at 570 nm. Cells with only medium without compounds were used as control. Three independent assays were completed with three replicates each. Cell viability was further calculated using the Equation (3):(3) Cell Viability % of control=Sample Absorbance-Blank Absorbance/Control Absorbance-Blank Absorbance×100

[3] = test system: Mia PaCa-2 pancreatic cancer cell line; assay: Cell viability by MTT assay, Mia PaCa-2; format: cell-based; conditions: Mia PaCa-2, MTT; for IC50: Homo sapiens, 72 h exposure
Description: as §1

[4] = ABTS radical scavenging assay
Description: The ABTS radical scavenging activity of H. cinereum extracts was assessed according to the method described by. Firstly, 1 mL of ABTS (Sigma-Aldrich, Steinheim, Germany) stock solution (7 mM) was mixed with 88 μL of potassium persulfate solution (140 mM) and kept overnight protected from light and at room temperature. Next, the mixture was diluted with potassium buffer saline (0.2 M, pH 7.4) to obtain an ABTS solution with an absorbance of 0.70 ± 0.02 at 734 nm. […] The reaction took place in the dark for 6 min, and the absorbance at 734 nm was measured. Samples containing the same volume of methanol and the same dilution of ascorbic acid served as white and positive controls, respectively. […] A2 is the solvent and sample mixture absorbance and A0 is the absorbance of the solvent and ABTS radical mixture.

A549 cell line = test system: A549 cell line; design: method as in PMID 20589534, PMID 29393891; conditions: cited from earlier work
[5] = test system: pancreatic cancer cell lines; design: method as in PMID 26527884; conditions: cited from earlier work
Panc-1 cells [6] = test system: Panc-1 cells; design: method as in PMID 38412575; conditions: 72 h of exposure; read-out: IC50 growth of Panc-1 cells; cited from earlier work
HaCaT cells = assay: Cell cycle analysis by flow cytometry, HaCaT; format: cell-based, human; conditions: IC50 concentration (122 μM), 72 h
Description: (§2) Cells were seeded in 12-well plates as described before. […] Then, cells were collected, washed with PBS, fixed with 85% ethanol and stored at −20 °C until analysis. For analysis, cells were washed, resuspended in PBS and filtered to Eppendorf tubes. Samples were incubated with 50 μL of RNAse (Sigma-Aldrich, St. Louis, MO, USA) for 10 min and next with 50 μL of propidium iodide (PI, ≥94%; Sigma-Aldrich, St. Louis, MO, USA) for 20 min. Cells were analyzed with an Attune® Acoustic Focusing Cytometer (Applied Biosystems, Termo Fischer Scientific, Agawam, MA, USA) and the percentages of cells at each phase of the cell cycle were determined using the FlowJo software V10.7.1 (FlowJo LLC, Ashland, OR, USA). Two independent assays with two replicates each were performed, with at least 5000 events.

A549 cells = assay: Cell cycle analysis by flow cytometry, A549; format: cell-based; conditions: A549, IC50 concentration (108 μM), 72 h
Description: as §2

[7] = test system: immortalized human keratinocytes HaCaT; assay: Cell viability by MTT assay, HaCaT; format: cell-based; conditions: 72 h exposure
Description: as §1, with “Then, the medium was removed and 150 μL of DMSO was added and plates were shaken in the dark for 1 h.” left out, “Cells with only medium without compounds were used as control. Three independent assays were completed with three replicates each.” left out

[8] = test system: Panc-1 pancreatic cancer cell line; assay: Cell viability by MTT assay, Panc-1; format: cell-based; conditions: Panc-1, MTT
Description: as §1, with “Then, the medium was removed and 150 μL of DMSO was added and plates were shaken in the dark for 1 h.” left out, “Cells with only medium without compounds were used as control. Three independent assays were completed with three replicates each.” left out

Mia PaCa-2 cells = assay: Cell cycle analysis by flow cytometry, Mia PaCa-2; format: cell-based; conditions: Mia PaCa-2, IC50 concentration (46.2 μM), 72 h
Description: as §2

[9] = test system: B16-F10 cells, melanoma cell line; design: method as in earlier work; conditions: 168 μM, 72 h; ref 41 (Lu et al. 2009); cited from earlier work
A375 cells = assay: Cell cycle analysis by flow cytometry, A375; format: cell-based; conditions: A375, IC50 concentration (102 μM), 72 h
Description: as §2

[10] = test system: A549 lung cancer cell line; assay: Cell viability by MTT assay, A549; format: cell-based
Description: as §1, with “Then, the medium was removed and 150 μL of DMSO was added and plates were shaken in the dark for 1 h.” left out, “Cells with only medium without compounds were used as control. Three independent assays were completed with three replicates each.” left out

Panc-1 cells [11] = assay: Cell cycle analysis by flow cytometry, Panc-1; format: cell-based; conditions: Panc-1, IC50 concentration (54 μM), 72 h
Description: as §2

## O=C1O[C@H]([C@@H](O)CO)C(O)=C1O [Ascorbic acid]
[1]
  DPPH (IC50): 3.36 ± 0.13 µg/g

## COc1cc2c(=O)oc3c(OC)c(OS(=O)(=O)O)cc4c(=O)oc(c1OC)c2c34 [Compound 12, 3,3′,4′-tri-O-methyl-ellagic acid 4-sulfate]
[2]
  cytotoxic effect: cytotoxic effect

## O=c1cc(-c2ccc(OC3OC(CO)C(O)C(O)C3O)c(O)c2)oc2cc(O)cc(O)c12 (stereo not drawn) [Luteolin 4′-O-glucoside, luteolin 4′-O-β-glucoside]
IL-5
  IL-5 inhibition: IL-5 inhibitor

## O=c1cc(-c2ccc(OC3OCC(O)C(O)C3O)c(O)c2)oc2cc(O)cc(O)c12 (stereo not drawn) [Luteolin 4′-O-β-xyloside, luteolin 4′-O-β-xyloside]
A375 melanoma cell line
  concentrations giving significant decrease in cell viability: up to 75 μM
[3]
  IC50: 229 ± 9.09 µM

## Cc1c(C)c2c(c(C)c1O)CCC(C)(C(=O)O)O2 (centres unmarked) [Trolox]
[1]
  DPPH (IC50): 12 ± 0.41 µg/mL
[4]
  ABTS (IC50): 23.2 ± 0.54 µg/mL

## O=c1cc(-c2ccc(O)c(O)c2)oc2cc(O)cc(O)c12 [luteolin aglycone, luteolin]
A549 cell line
  IC50: 32.6 µM and 40 µM
[5]
  concentrations strongly affecting pancreatic cancer cell lines: above 160 μM

## O=C(/C=C/c1ccc(O)cc1)OC[C@H]1O[C@@H](Oc2c(-c3ccc(O)cc3)oc3cc(O)cc(O)c3c2=O)[C@H](O)[C@@H](O)[C@@H]1O [trans-tiliroside, kaempferol-3-O-[6″-O-(E)-p-coumaroyl]-β-D-glucoside]
A375 melanoma cell line
  concentrations giving significant decrease in cell viability: ≥ 75 µM
A375 melanoma cell line; Homo sapiens, A-375, 72 h exposure
  IC50: 102 ± 2.56 µM
Panc-1 cells [6]
  IC50: 68.5 µM
HaCaT cells
  effect on cell cycle dynamics: no alterations on the cell cycle dynamics
A549 cells
  effect on cell cycle dynamics: no alterations on the cell cycle dynamics
[7]
  IC50: 122 ± 1.8 µM
[8]; Homo sapiens, 72 h exposure
  IC50: 54 ± 1.95 µM
[8]; 72 h
  concentration causing decline of cell viability: 10 µM
Mia PaCa-2 cells
  increase of cells at G2/M phase compared to the control: 3.9%
  increase of cells at the S phase compared to the control: 5.6%
[9]
  decline in the viability of B16-F10 cells: 80%
A375 cells
  effect on cell cycle dynamics: no alterations on the cell cycle dynamics
[10]; 72 h
  concentrations giving significant decrease in cell viability: ≥ 75 µM
[10]; Homo sapiens, 72 h exposure
  IC50: 108 ± 2.8 µM
[3]
  IC50: 46.2 ± 0.89 µM
[3]; 72 h
  concentrations affecting cell viability: ≥ 50 µM
Panc-1 cells [11]
  effect on cell cycle dynamics: no alterations on the cell cycle dynamics
